Measurements published in patent publication US11453689B2, “3-pyrrolidine-indole derivatives as serotonergic psychedelic agents for the treatment of CNS disorders” (Mindset Pharma Inc., priority 2020, dated 2022).

System: head-twitch response (HTR) in male C57BL6 mice
Experiment: Mouse head-twitch response (HTR)
Assay type: in vivo
Details: M100907 0.5 mg/kg IP before I-2 10 mg/kg SC
Description: Male, C57BL/6J mice (body weight range 20-30 g) were dosed with the appropriate dose of test article, and following a 1-minute pre-treatment time, placed in individual observation chambers. Animals were visually assessed for the incidence head twitches continuously over a 1 hr period. Head twitches were defined as a rapid jerk of the head which was not elicited by an external tactile stimulus (Come and Pickering, Psychopharmacologia, 1967, 11(1): 65-78). Each head twitch was individually counted by a trained observer, and the data expressed as the mean±SEM of 6-10 mice per group. Mice were used in a single experiment only.
The effect of various doses of exemplary compound of Formula I, I-2, on head-twitch response (HTR) in male C57BL6 mice were measured. The mice were treated with compound I-2 (0.03-10 mg/kg, SC) by SC route (N=6 mice/dose), and the total number of head twitches were recorded over a 1h period. Data is expressed as mean±SEM. The induction of head twitches elicited by 5-HT2A receptor agonists is believed to represent a behavioural proxy of their psychedelic effects.
To evaluate the involvement of 5-HT2A receptor on the HTR induced by exemplary compounds of Formula I, mice were pretreated with the selective 5-HT2AR antagonist M100907 (also known as volinanserin) prior to the administration of exemplary compounds of Formula I, for example, 1-2 (10 mg/kg SC).

## [2H]C([2H])([2H])N1CCC[C@@H]1Cc1c[nH]c2cccc(O)c12 [Compound I-2, (R)-3-((1-(methyl-d3)pyrrolidin-2-yl)methyl)-1H-indol-4-ol]
  effect of I-2 on HTR after pretreatment with 5-HT2A antagonist M100907: completely blocked
